Results published in PMC12392461, “Beyond Estrogenicity: A Comparative Assessment of Bisphenol A and Its Alternatives in In Vitro Assays Questions Safety of Replacements” (Environmental Science & Technology, 2025).
Like-named read-outs stand apart in the source and are kept apart here.

Tests used:
[1] = set-up: method as in ref 12 (ECHA); details: ref 12 (ECHA), cited from earlier work
keratinocytes = system: keratinocytes; set-up: method as in Son et al.; details: ref Son et al.; cited from earlier work
[2] = set-up: method as in ref EFSA; details: in vitro and in vivo data; ref EFSA; cited from earlier work
[3] = Abiotic CYP (aCYP) oxidation, remaining parent compound (Cparent-Ratio)
Protocol: The mixtures were adjusted to a final volume of 100 μL with acetonitrile (ACN). The reaction mix was incubated for 15 min at 30 °C and 1000 rpm on a Bioshake iQ orbital shaker from QInstruments (Jena, Germany). Additionally, a mixture without test compounds was prepared as a control. Subsequently, 10 μL of the reaction mixture was transferred into a conical dosing vial and evaporated under a nitrogen flow.
For chemical analysis, 10 μL of the reaction mixture was concentrated under vacuum (CentriVap, Labconco, Kansas City, MO, USA), diluted to 1 mg/L in ACN or ethyl acetate. The chemical analysis of the reaction mixtures was performed using liquid chromatography (LC) and gas chromatography (GC) coupled with various detection techniques, preferably Multiple Reaction Monitoring (MRM). Data acquisition and processing were carried out using the software MassHunter. Quantification was based on external calibrations.
The Cparent-Ratio quantifies the extent of oxidation of the parent compound after the abiotic CYP reaction. It was calculated as the ratio of the parent compound concentration after oxidation (C parent, after oxidation) to its concentration before oxidation (C parent, before oxidation) as shown in eq . […] 8 Cparent‐Ratio=Cparent,after oxidation/Cparent,before oxidation

Tox21 assays [4] = details: re-evaluated Tox21 data, ref Adamovsky et al 2024, cited from earlier work
Tox21 assays [5] = test: Re-evaluated Tox21 data (Adamovsky et al.), REPBPA and SRbaseline; details: for REPBPA: Relative Effect Potency; for SRbaseline: Specificity Ratio;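 for all read-outs here: published Tox21 results reanalysed with a revised model predicting baseline toxicity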
Text: We also reanalyzed the Tox21 data of Adamovsky et al. with the updated baseline toxicity prediction model (Table S2).

ERα = details: ref Pelch et al 2019; cited from earlier work
Estrogen Receptor ERα = biological target: T1, Estrogen Receptor ERα (Homo sapiens, UniProt P03372); test: cell-based; details: This Study
T1 sequence (P03372 311-547 limits assumed): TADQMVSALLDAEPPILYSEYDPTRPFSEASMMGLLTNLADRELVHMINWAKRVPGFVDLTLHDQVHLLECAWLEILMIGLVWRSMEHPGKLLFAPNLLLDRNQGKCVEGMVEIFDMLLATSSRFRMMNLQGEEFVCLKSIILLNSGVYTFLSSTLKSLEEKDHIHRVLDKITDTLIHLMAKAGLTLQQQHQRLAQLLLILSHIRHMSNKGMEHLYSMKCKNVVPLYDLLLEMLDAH
Text: All bioassay media components and the ERα-UAS-bla GripTite and PPARγ-UAS-bla cells were obtained from Thermo Fisher Scientific (Waltham, MA, USA). AREc32 reporter gene cells based on MCF7 were provided by C. Roland Wolf (Cancer Research UK); AhR CALUX cells (H4L7.5c2 derived from H4IIe) were provided by Michael Denison (UC Davis, USA); and SH-SY5Y cells were purchased from Sigma-Aldrich.
Cell culture conditions and bioassay protocols including response detection are provided in Text S2.1–2.4 and Table S3. − Cell viability was determined from cell confluency using an IncuCyte S3 Live-Cell Analysis System (Sartorius AG, Essen, Germany) before and after exposure, except for SH-SY5Y cells (live–dead staining with Nuclear Green LcS1 and propidium iodide, Abcam, UK). For metabolic activation experiments, cell viability was assessed using the ToxBLAzer DualScreen Kit (Thermo Fisher Scientific) to capture the remaining toxicity in ERα-UAS-bla GripTite after treatment with the aCYP catalyst (details in Text S2.4).
For ARE, the concentration that triggered an induction ratio of 1.5 (ECIR1.5) was used as the benchmark value, as detailed in Text S2.5. IC10 values also served as a threshold for data analysis in all assays; only concentrations below IC10 were considered when deriving EC10 or ECIR1.5.
The maximum efficacy (Emax%) refers to the maximum of the log–logistic concentration–response curve attained by test chemicals compared to the reference chemical’s maximum and was obtained for both ERα and PPARγ. […]
S2: Cell culture and bioassays
S2.1: Cell Culturing Conditions
All suppliers and sources are given in detail in SI-Excel S3. The bioassay media for the different assays were prepared as follows: Assay medium for ER alpha-UAS-bla GripTite (ERα) and […]
2% charcoal-stripped FBS, and 100 U/mL penicillin-streptomycin. […]
S2.2: Cell Seeding and Incubation. For all bioassays, cell suspensions in the respective assay medium were dispensed into each well of 384-well plates using a MultiFlo Dispenser (Biotek, (now Agilent), Winooski, VT, U.S.). After seeding, the plates were incubated at 37° C and 5% CO₂ for […]. The final cell densities and plate types were as follows: Black poly-D-lysine […]
6500 cells/well, ERα: 5000 cells/well. White 384-well plates with a clear bottom (Product No. […]
S2.3: Chemical Dosing and Assay Analysis Procedures.

[6] = TOX21_AR_LUC_MDAKB2_Antagonist_0,5nM_R1881
[7] = TOX21_PPARg_BLA_antagonist_ratio

Q: Which “degradation in OECD guideline test 301B” value ([1]; aqueous solution) does the source give for CC1(C)C(O)C(C)(C)C1O (centres unmarked) [TMCD, 2,2,4,4-tetramethyl-1,3-cyclobutanediol] here?
A: Its value is “no degradation”.

Q: What about the “time reported to remain stable” value [1] of the same compound?
A: Its value is 22 days.

Q: And the “concentration with statistically significant reduced cell viability” value (keratinocytes)?
A: Its value is 350 µM.

Q: What about the genotoxicity categorisation [2] of the same compound?
A: The genotoxicity categorisation was “nongenotoxic”.

Q: And the “parent compound during aCYP oxidation” value [3]?
A: Its value is “remained unchanged”.

Q: For O=S(=O)(c1ccc(O)cc1)c1ccccc1O [2, 4BPS], which “% Loss” value ([3]; Table S9, loss of parent after aCYP oxidation) is on record?
A: Its value is -4.66%.

Q: What about the “Cparent-Ratio Mean” value ([3]; Table S9, mean of two replicate experiments) of the same compound?
A: The value was 1.05.

Q: And the “Cparent-Ratio Rep.1 %” value ([3]; Table S9, replicate 1)?
A: Its value is 108.33%.

Q: What about the “Cparent-Ratio Rep.1” value ([3]; Table S9, replicate 1, as fraction) of the same compound?
A: The value was 1.08.

Q: And the “Cparent-Ratio Rep.2 %” value ([3]; Table S9, replicate 2)?
A: Its value is 100.98%.

Q: And the “Cparent-Ratio Rep.2” value ([3]; Table S9, replicate 2, as fraction)?
A: The value was 1.01.

Q: With Cc1cc(C(C)(C)c2ccc(O)c(C)c2)ccc1O [BPC] as the compound, how does the EC10 (Tox21 assays [4]; ATG_PPARg_TRANS_up) read?
A: Its EC10 is 1880 nM.

Q: What about the EC10 (Tox21 assays [4]; [6]) of the same compound?
A: Its EC10 is 850 nM.

Q: What about the EC10 (Tox21 assays [4]; [7]) of the same compound?
A: The EC10 was 3090 nM.

Q: What about the REPBPA (Tox21 assays [5]; ATG_PPARg_TRANS_up) of the same compound?
A: Its REPBPA is 0.85.

Q: And the SRbaseline (Tox21 assays [5]; ATG_PPARg_TRANS_up)?
A: The SRbaseline was 17.78.

Q: What about the REPBPA (Tox21 assays [5]; [6]) of the same compound?
A: Its REPBPA is 2.85.

Q: What about the SRbaseline (Tox21 assays [5]; [6]) of the same compound?
A: The SRbaseline was 39.40.

Q: And the SRbaseline (Tox21 assays [5]; [7])?
A: The SRbaseline was 10.83.

Q: With O=S(=O)(c1ccc(O)cc1)c1ccccc1O [24BPS] as the compound, how does the Efficacy % (ERα) read?
A: The Efficacy % was 24.30%.

Q: And the Efficacy % (Estrogen Receptor ERα)?
A: The Efficacy % was 19.00%.

Q: What about the EC10 (Estrogen Receptor ERα; ERα, in M) of the same compound?
A: The EC10 was 1.98E-05.

Q: What about the REPBPA (Estrogen Receptor ERα; relative estrogenic potency vs BPA) of the same compound?
A: Its REPBPA is 1.87E-02.
